# Data from patent publication US20240018146A1, “COMPOSITIONS AND METHODS OF USING THE SAME FOR TREATMENT OF NEURODEGENERATIVE AND MITOCHONDRIAL DISEASE” (MITOKININ, INC., priority 2020, published 2024).
# Where two headings read alike, the source gives them in different places.
# Tests used:
# Type in all cases: cell-based
# HeLa MKYP cells [1] = test: Human mitophagy assay (HeLa mKeima assay, FACS); conditions: read-out: Mitophagy induction EC50
# Procedure, shortened: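 HeLa cells carrying the pH-sensitive mtKeima tag incubated 16 h with compound at several concentrations, then 1 uM FCCP/oligomycin for 6 h. FACS detects mitochondria in lysosomes through the Keima emission shift, quantified as percentage of cells in mitophagy.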
# HeLa MKYP cells [2] = test: Cell death measured by DAPI staining, with 1 μM FCCP/oligomycin or no toxin (no FO)
# Procedure, shortened: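 HeLa MKYP cells were treated with compounds alongside 1 μM FCCP/oligomycin or no toxin for 6 or 6.5 h. Cell death was scored by DAPI staining, with H2O2 treatment as the death control.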
# [3] = Mitotoxicity / Mitotox safety margin (therapeutic window)
SMILES,"EC50 (HeLa MKYP cells [1]; Homo sapiens, HeLa)",Highest safe dose (cytotoxicity; no FO; safe means DAPI+ <20%) (HeLa MKYP cells [2]),Max % death with 1 μM FO (HeLa MKYP cells [2]),Mito-Safety Index (highest safe dose/EC50) [3],Highest safe dose (μM) (mitotox or cytotox) [3],EC50 (HeLa MKYP cells [1])
FC(F)(F)c1cc2c(N[C@H]3c4ccccc4OC[C@@H]3N3C[C@H]4COC[C@H]4C3)ncnc2[nH]1 [EP-0040138],770 nM,25.0 µM,9.4%,32.50,25.0 µM,–
Fc1ccc2c(c1)CC[C@H](N1C[C@H]3COC[C@@H]3C1)[C@H]2Nc1ncnc2[nH]c(C3CC3)cc12 [EP-0040395],210 nM,25.0 µM,8.1%,56.09,11.7 µM,–
FC(F)(F)c1cc2c(N[C@H]3c4ccccc4OC[C@@H]3C3CCOCC3)ncnc2[nH]1 [EP-0040583],240 nM,25.0 µM,17.8%,104.01,25.0 µM,–
Fc1ccc2c(c1)CC[C@H](N1C[C@H]3COC[C@H]3C1)[C@H]2Nc1ncnc2[nH]c(C3CC3)cc12 [EP-0040601],190 nM,25.0 µM,45.3%,55.12,10.3 µM,–
Fc1ccc2c(c1)CC[C@H](N1C[C@@H]3COC[C@H]3C1)[C@H]2Nc1ncnc2[nH]c(C3CC3)cc12 [EP-0040669],350 nM,25.0 µM,29.9%,71.36,25.0 µM,–
FC(F)(F)c1cc2c(NC3c4ccccc4OCC3N3C[C@@H]4COC[C@H]4C3)ncnc2[nH]1 (stereo partly drawn) [EP-0040677],320 nM,25.0 µM,11.1%,77.08,25.0 µM,–
FC(F)(F)c1cc2c(NC3c4ccccc4OCC3N3C[C@H]4COC[C@@H]4C3)ncnc2[nH]1 (stereo partly drawn) [EP-0040678],860 nM,25.0 µM,9.2%,28.90,25.0 µM,–
COC1CN([C@H]2CCc3ccccc3[C@@H]2Nc2ncnc3[nH]c(C(F)(F)F)cc23)C1 [EP-0040688],310 nM,8.3 µM,82.1%,26.96,8.3 µM,–
Fc1ccc2c(c1)CC[C@H](N1C[C@H]3COC[C@@H]3C1)[C@H]2Nc1ncnc2[nH]c(C(F)(F)F)cc12 [EP-0040695],100 nM,25.0 µM,20.7%,89.34,9.1 µM,–
COC1CN([C@H]2COc3ccccc3[C@@H]2Nc2ncnc3[nH]c(C(F)(F)F)cc23)C1 [EP-0040697],–,8.3 µM,57.6%,15.51,8.3 µM,540 nM
COC1CN([C@H]2COc3ccccc3[C@@H]2Nc2ncnc3[nH]c(C4CC4)cc23)C1 [EP-0040702],–,25.0 µM,7.7%,77.26,25.0 µM,320 nM
c1ccc2c(c1)CC[C@H](C1CCOCC1)[C@H]2Nc1ncnc2[nH]c(C3CC3)cc12 [EP-0040726],20 nM,25.0 µM,20.5%,100.89,2.1 µM,–
c1ccc2c(c1)OC[C@@H](C1CCOCC1)[C@@H]2Nc1ncnc2[nH]c(C3CC3)cc12 [EP-0040729],60 nM,25.0 µM,17.1%,52.06,3.2 µM,–
c1ccc2c(c1)CC[C@H](N1C[C@@H]3COC[C@H]3C1)[C@H]2Nc1ncnc2[nH]c(C3CC3)cc12 [EP-0040768],50 nM,25.0 µM,33.1%,57.75,3.0 µM,–
COC1CN([C@H]2COc3ccccc3[C@@H]2Nc2ncnc3[nH]c(C4CC4)cc23)C1 [EP-0040847],–,25.0 µM,5.2%,–,25.0 µM,> 25000 nM
COC1CN([C@@H]2COc3ccccc3[C@H]2Nc2ncnc3[nH]c(C4CC4)cc23)C1 [EP-0040848],160 nM,25.0 µM,10.6%,152.94,25.0 µM,–
COC1CN([C@H]2COc3ccccc3[C@@H]2Nc2ncnc3[nH]c(C(F)(F)F)cc23)C1 [EP-0040849],–,25.0 µM,5.2%,2.61,25.0 µM,9590 nM
C[C@@H]1CN([C@@H]2COc3ccccc3[C@H]2Nc2ncnc3[nH]c(C(F)(F)F)cc23)C[C@H](C)O1 [EP-0040943],50 nM,25.0 µM,20.9%,47.50,2.3 µM,–
C[C@@H]1CN([C@H]2COc3ccccc3[C@@H]2Nc2ncnc3[nH]c(C4CC4)cc23)C[C@H](C)O1 [EP-0040944],1220 nM,25.0 µM,6.3%,20.51,25.0 µM,–
C[C@@H]1CN([C@@H]2COc3ccccc3[C@H]2Nc2ncnc3[nH]c(C4CC4)cc23)C[C@H](C)O1 [EP-0040945],40 nM,25.0 µM,18.4%,27.95,1.2 µM,–
C[C@@H]1CN([C@H]2COc3cc(F)ccc3[C@@H]2Nc2ncnc3[nH]c(C(F)(F)F)cc23)C[C@H](C)O1 [EP-0040946],> 25000 nM,–,4.8%,–,25.0 µM,–
C[C@@H]1CN([C@@H]2COc3cc(F)ccc3[C@H]2Nc2ncnc3[nH]c(C(F)(F)F)cc23)C[C@H](C)O1 [EP-0040947],20 nM,25.0 µM,16.6%,98.61,2.2 µM,–
C[C@@H]1CN([C@H]2COc3cc(F)ccc3[C@@H]2Nc2ncnc3[nH]c(C4CC4)cc23)C[C@H](C)O1 [EP-0040948],> 25000 nM,25.0 µM,5.6%,–,25.0 µM,–
